Experimental data taken from EP0284935A1, “5-Substituted quinolone- and naphthyridone carboxylic acid derivatives” (BAYER AG, priority 1987, dated 1988).
Values after ≈ are worked out from the molar mass of the structure shown. Where a name gives a salt, the structure may show the parent alone.

Tests used:
Assay in all cases: Agar dilution test, minimum inhibitory concentration
Type in all cases: cell-based
[1] = system: Pseudomonas Walter; conditions: test strain Pseudomonas Walter; Isosensitest-Agar (Oxoid), inoculum ca. 10^4 germs per inoculation point; read-out: Minimale Hemmkonzentrationen
[2] = system: Proteus mir. 8175; conditions: test strain Proteus mir. 8175; Isosensitest-Agar (Oxoid), inoculum ca. 10^4 germs per inoculation point; read-out: Minimale Hemmkonzentrationen
[3] = system: Serratia 16040; conditions: test strain Serratia 16040; Isosensitest-Agar (Oxoid), inoculum ca. 10^4 germs per inoculation point; read-out: Minimale Hemmkonzentrationen
[4] = system: Proteus mir. 8223; conditions: test strain Proteus mir. 8223; Isosensitest-Agar (Oxoid), inoculum ca. 10^4 germs per inoculation point; read-out: Minimale Hemmkonzentrationen
[5] = system: Staph. 133; conditions: test strain Staph. 133; Isosensitest-Agar (Oxoid), inoculum ca. 10^4 germs per inoculation point; read-out: Minimale Hemmkonzentrationen
[6] = system: Staph. FK 422; conditions: test strain Staph. FK 422; Isosensitest-Agar (Oxoid), inoculum ca. 10^4 germs per inoculation point; read-out: Minimale Hemmkonzentrationen
[7] = system: Staph. 1756; conditions: test strain Staph. 1756; Isosensitest-Agar (Oxoid), inoculum ca. 10^4 germs per inoculation point; read-out: Minimale Hemmkonzentrationen
[8] = system: Providencia 12052; conditions: test strain Providencia 12052; Isosensitest-Agar (Oxoid), inoculum ca. 10^4 germs per inoculation point; read-out: Minimale Hemmkonzentrationen
[9] = system: E.coli 455/7; conditions: Escherichia coli; test strain E.coli 455/7; Isosensitest-Agar (Oxoid), inoculum ca. 10^4 germs per inoculation point; read-out: Minimale Hemmkonzentrationen
[10] = system: Morg. morg. 11006; conditions: test strain Morg. morg. 11006; Isosensitest-Agar (Oxoid), inoculum ca. 10^4 germs per inoculation point; read-out: Minimale Hemmkonzentrationen
[11] = system: Pseudomonas Ellsworth; conditions: test strain Pseudomonas Ellsworth; Isosensitest-Agar (Oxoid), inoculum ca. 10^4 germs per inoculation point; read-out: Minimale Hemmkonzentrationen
[12] = system: Enteroc. 9790; conditions: test strain Enteroc. 9790; Isosensitest-Agar (Oxoid), inoculum ca. 10^4 germs per inoculation point; read-out: Minimale Hemmkonzentrationen
[13] = system: Klebsiella 8085; conditions: test strain Klebsiella 8085; Isosensitest-Agar (Oxoid), inoculum ca. 10^4 germs per inoculation point; read-out: Minimale Hemmkonzentrationen
[14] = system: Enteroc. 27101; conditions: test strain Enteroc. 27101; Isosensitest-Agar (Oxoid), inoculum ca. 10^4 germs per inoculation point; read-out: Minimale Hemmkonzentrationen
[15] = system: Klebsiella 63; conditions: test strain Klebsiella 63; Isosensitest-Agar (Oxoid), inoculum ca. 10^4 germs per inoculation point; read-out: Minimale Hemmkonzentrationen
[16] = system: Providencia 12012; conditions: test strain Providencia 12012; Isosensitest-Agar (Oxoid), inoculum ca. 10^4 germs per inoculation point; read-out: Minimale Hemmkonzentrationen
[17] = system: Morg. morg. 932; conditions: test strain Morg. morg. 932; Isosensitest-Agar (Oxoid), inoculum ca. 10^4 germs per inoculation point; read-out: Minimale Hemmkonzentrationen
[18] = system: E.coli A261; conditions: Escherichia coli; test strain E.coli A261; Isosensitest-Agar (Oxoid), inoculum ca. 10^4 germs per inoculation point; read-out: Minimale Hemmkonzentrationen
[19] = system: Proteus vulg. 1017; conditions: test strain Proteus vulg. 1017; Isosensitest-Agar (Oxoid), inoculum ca. 10^4 germs per inoculation point; read-out: Minimale Hemmkonzentrationen

| SMILES | MIC [1] | MIC [2] | MIC [3] | MIC [4] | MIC [5] | MIC [6] | MIC [7] | MIC [8] | MIC [9] | MIC [10] | MIC [11] | MIC [12] | MIC [13] | MIC [14] | MIC [15] | MIC [16] | MIC [17] | MIC [18] | MIC [19] |
| --- | --- | --- | --- | --- | --- | --- | --- | --- | --- | --- | --- | --- | --- | --- | --- | --- | --- | --- | --- |
| CC1CN(c2c(F)c(N)c3c(=O)c(C(=O)O)cn(C4CC4)c3c2F)CCN1 (stereo not shown) [Beispiel 17, 5-Amino-1-cyclopropyl-6,8-difluor-1,4-dihydro-7-(3-methyl-1-piperazinyl)-4-oxo-3-chinolincarbonsäure] | 0.25 µg/mL (≈ 0.661 µM) | 0.06 µg/mL (≈ 0.159 µM) | 2 µg/mL (≈ 5.29 µM) | 0.25 µg/mL (≈ 0.661 µM) | 0.03 µg/mL (≈ 0.0793 µM) | 0.03 µg/mL (≈ 0.0793 µM) | 0.03 µg/mL (≈ 0.0793 µM) | 2 µg/mL (≈ 5.29 µM) | 0.5 µg/mL (≈ 1.32 µM) |  |  |  |  |  |  |  |  |  |  |
| CCN1CCN(c2c(F)c(N)c3c(=O)c(C(=O)O)cn(C4CC4)c3c2F)CC1 [Beispiel 20, 5-Amino-1-cyclopropyl-7-(4-ethyl-1-piperazinyl)-6,8-difluor-1.4-dihydro-4-oxo-3-chinolincarbonsäure] | 1 µg/mL (≈ 2.55 µM) |  | 4 µg/mL (≈ 10.2 µM) | 0.25 µg/mL (≈ 0.637 µM) | 0.06 µg/mL (≈ 0.153 µM) | 0.06 µg/mL (≈ 0.153 µM) | 0.06 µg/mL (≈ 0.153 µM) | 1 µg/mL (≈ 2.55 µM) | 2 µg/mL (≈ 5.1 µM) | 0.06 µg/mL (≈ 0.153 µM) | 0.03 µg/mL (≈ 0.0765 µM) | 0.25 µg/mL (≈ 0.637 µM) | 0.06 µg/mL (≈ 0.153 µM) | 0.25 µg/mL (≈ 0.637 µM) | 0.03 µg/mL (≈ 0.0765 µM) | 0.06 µg/mL (≈ 0.153 µM) | 0.03 µg/mL (≈ 0.0765 µM) | 0.25 µg/mL (≈ 0.637 µM) |  |
| Nc1c(F)c(N2CCN(CCO)CC2)c(F)c2c1c(=O)c(C(=O)O)cn2C1CC1 [Beispiel 21] | 1 µg/mL (≈ 2.45 µM) |  | 4 µg/mL (≈ 9.79 µM) | 0.5 µg/mL (≈ 1.22 µM) | 0.06 µg/mL (≈ 0.147 µM) | 0.06 µg/mL (≈ 0.147 µM) | 0.06 µg/mL (≈ 0.147 µM) | 2 µg/mL (≈ 4.9 µM) | 2 µg/mL (≈ 4.9 µM) |  |  | 0.25 µg/mL (≈ 0.612 µM) | 0.06 µg/mL (≈ 0.147 µM) | 0.25 µg/mL (≈ 0.612 µM) | 0.06 µg/mL (≈ 0.147 µM) | 0.06 µg/mL (≈ 0.147 µM) | 0.03 µg/mL (≈ 0.0735 µM) | 0.5 µg/mL (≈ 1.22 µM) |  |
| C[C@@H]1CN(c2c(F)c(N)c3c(=O)c(C(=O)O)cn(C4CC4)c3c2F)C[C@H](C)N1 [Beispiel 22, 5-Amino-1-cyclopropyl-6,8-difluor-1,4-dihydro-7-(cis-3,5-dimethyl-1-piperazinyl)-4-oxo-3-chinolincarbonsäure] | 0.5 µg/mL (≈ 1.27 µM) | 0.06 µg/mL (≈ 0.153 µM) | 2 µg/mL (≈ 5.1 µM) | 0.5 µg/mL (≈ 1.27 µM) | 0.03 µg/mL (≈ 0.0765 µM) | 0.03 µg/mL (≈ 0.0765 µM) | 0.03 µg/mL (≈ 0.0765 µM) | 1 µg/mL (≈ 2.55 µM) | 0.5 µg/mL (≈ 1.27 µM) | 0.03 µg/mL (≈ 0.0765 µM) | 0.03 µg/mL (≈ 0.0765 µM) | 0.25 µg/mL (≈ 0.637 µM) | 0.06 µg/mL (≈ 0.153 µM) |  | 0.03 µg/mL (≈ 0.0765 µM) | 0.03 µg/mL (≈ 0.0765 µM) | 0.03 µg/mL (≈ 0.0765 µM) |  |  |
| Nc1c(F)c(N2CCNC(c3ccccc3)C2)c(F)c2c1c(=O)c(C(=O)O)cn2C1CC1 (stereo not shown) [Beispiel 23, 5-Amino-1-cyclopropyl-6,8-difluor-1,4-dihydro-4-oxo-7-(3-phenyl-1-piperazinyl)-3-chinolincarbonsäure] | 1 µg/mL (≈ 2.27 µM) | 0.06 µg/mL (≈ 0.136 µM) | 2 µg/mL (≈ 4.54 µM) |  |  |  |  | 1 µg/mL (≈ 2.27 µM) | 1 µg/mL (≈ 2.27 µM) | 0.03 µg/mL (≈ 0.0681 µM) |  | 0.06 µg/mL (≈ 0.136 µM) | 0.03 µg/mL (≈ 0.0681 µM) | 0.03 µg/mL (≈ 0.0681 µM) |  |  |  | 0.25 µg/mL (≈ 0.568 µM) |  |
| Nc1c(F)c(N2CCNC(c3ccc(F)cc3)C2)c(F)c2c1c(=O)c(C(=O)O)cn2C1CC1 (stereo not shown) [Beispiel 24, 5-Amino-1-cyclopropyl-6,8-difluor-7-[3-(4-fluorphenyl)-1-piperazinyl]-1,4-dihydro-4-oxo-3-chinolincarbonsäure] | 2 µg/mL (≈ 4.36 µM) | 0.25 µg/mL (≈ 0.545 µM) | 8 µg/mL (≈ 17.5 µM) | 2 µg/mL (≈ 4.36 µM) | 0.06 µg/mL (≈ 0.131 µM) |  | 0.06 µg/mL (≈ 0.131 µM) | 4 µg/mL (≈ 8.73 µM) | 4 µg/mL (≈ 8.73 µM) | 0.25 µg/mL (≈ 0.545 µM) | 0.25 µg/mL (≈ 0.545 µM) | 0.25 µg/mL (≈ 0.545 µM) |  | 0.25 µg/mL (≈ 0.545 µM) |  |  |  | 1 µg/mL (≈ 2.18 µM) | 0.06 µg/mL (≈ 0.131 µM) |
| Nc1c(F)c(N2CCN3CCC2C3)c(F)c2c1c(=O)c(C(=O)O)cn2C1CC1 (stereo not shown) [Beispiel 25, 5-Amino-1-cyclopropyl-7-(1,4-diazabicyclo[3.2.1]oct-4-yl)-6,8-difluor-1,4-dihydro-4-oxo-3-chinolincarbonsäure] | 0.5 µg/mL (≈ 1.28 µM) |  | 4 µg/mL (≈ 10.2 µM) | 1 µg/mL (≈ 2.56 µM) |  |  |  | 4 µg/mL (≈ 10.2 µM) | 1 µg/mL (≈ 2.56 µM) | 0.03 µg/mL (≈ 0.0768 µM) | 0.03 µg/mL (≈ 0.0768 µM) |  | 0.06 µg/mL (≈ 0.154 µM) |  | 0.03 µg/mL (≈ 0.0768 µM) | 0.06 µg/mL (≈ 0.154 µM) |  |  |  |
| Nc1c(F)c(N2CCCC2)c(F)c2c1c(=O)c(C(=O)O)cn2C1CC1 [Beispiel 27, 5-Amino-1-cyclopropyl-6,8-difluor-1,4-dihydro-4-oxo-7-(1-pyrrolidinyl)-3-chinolincarbonsäure] | 1 µg/mL (≈ 2.86 µM) | 0.25 µg/mL (≈ 0.716 µM) | 16 µg/mL (≈ 45.8 µM) | 0.25 µg/mL (≈ 0.716 µM) |  |  |  | 8 µg/mL (≈ 22.9 µM) | 16 µg/mL (≈ 45.8 µM) |  |  |  |  | 0.03 µg/mL (≈ 0.0859 µM) |  | 0.06 µg/mL (≈ 0.172 µM) | 0.06 µg/mL (≈ 0.172 µM) | 2 µg/mL (≈ 5.73 µM) | 0.06 µg/mL (≈ 0.172 µM) |
| Nc1c(F)c(N2CCC(O)C2)c(F)c2c1c(=O)c(C(=O)O)cn2C1CC1 (stereo not shown) [Beispiel 28, 5-Amino-1-cyclopropyl-6,8-difluor-1,4-dihydro-7-(3-hydroxy-1-pyrrolidinyl)-4-oxo-3-chinolincarbonsäure] | 0.25 µg/mL (≈ 0.684 µM) |  | 1 µg/mL (≈ 2.74 µM) | 0.06 µg/mL (≈ 0.164 µM) |  |  |  | 1 µg/mL (≈ 2.74 µM) | 2 µg/mL (≈ 5.47 µM) |  | 0.03 µg/mL (≈ 0.0821 µM) | 0.03 µg/mL (≈ 0.0821 µM) |  | 0.03 µg/mL (≈ 0.0821 µM) |  |  |  | 0.25 µg/mL (≈ 0.684 µM) |  |
| CCNCC1CCN(c2c(F)c(N)c3c(=O)c(C(=O)O)cn(C4CC4)c3c2F)C1 (stereo not shown) [Beispiel 32, 5-Amino-1-cyclopropyl-7-(3-ethylaminomethyl-1-pyrrolidinyl)-6.8-difluor-1,4-dihydro-4-oxo-3-chinolincarbonsäure-hydrochlorid-hydrat] | 1 µg/mL | 0.06 µg/mL | 4 µg/mL | 0.5 µg/mL | 0.03 µg/mL | 0.03 µg/mL | 0.03 µg/mL | 1 µg/mL | 1 µg/mL | 0.03 µg/mL | 0.03 µg/mL | 0.03 µg/mL | 0.03 µg/mL | 0.03 µg/mL |  | 0.03 µg/mL |  | 0.06 µg/mL |  |
